Results: ChEMBL document CHEMBL1201862, “PubChem BioAssay data set” (2004)
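Step 1: Grow cells in 96-well plates. Step 2: Expose to compound for 48 hours at 5 concentrations. Step 3: Interpolate endpoints linearly; if unreached, use highest concentration. At the GI50, growth is halved.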 Activity calls are given as the source filed them. Cut-off read from the data, not from the text of the source: active = GI50 up to about 1.1 µM and inactive = higher.

What was measured:
Test in all cases: DTP human tumour cell line panel, 48 h
[1] = test system: IGROV-1
[2] = test system: UO-31
[3] = test system: NCI-H460
[4] = test system: MDA-MB-435
[5] = test system: SK-MEL-5
[6] = test system: MCF7
[7] = test system: SW-620
[8] = test system: SK-OV-3
[9] = test system: Malme-3M
[10] = test system: RPMI-8226
[11] = test system: NCI-H522
[12] = test system: NCI-H226
[13] = test system: OVCAR-3
[14] = test system: UACC-257
[15] = test system: M14
[16] = test system: 786-0
[17] = test system: MDA-MB-231
[18] = test system: LOX IMVI
[19] = test system: SNB-19
[20] = test system: SNB-75
[21] = test system: MOLT-4
[22] = test system: SK-MEL-2
[23] = test system: HOP-62
[24] = test system: HCT-15
[25] = test system: SR
[26] = test system: KM12
[27] = test system: HL-60
[28] = test system: TK-10
[29] = test system: ACHN
[30] = test system: HOP-92
[31] = test system: OVCAR-5
[32] = test system: UACC-62
[33] = test system: A498
[34] = test system: PC-3
[35] = test system: OVCAR-4
[36] = test system: EKVX
[37] = test system: NCI-H23
[38] = test system: COLO 205
[39] = test system: SF-268
[40] = test system: NCI/ADR-RES
[41] = test system: HT-29
[42] = test system: BT-549
[43] = test system: SK-MEL-28
[44] = test system: HCT-116
[45] = test system: SF-295
[46] = test system: DU-145
[47] = test system: CCRF-CEM
[48] = test system: RXF 393
[49] = test system: OVCAR-8
[50] = test system: Hs-578T
[51] = test system: U-251
[52] = test system: CAKI-1
[53] = test system: SN12C
[54] = test system: A549
[55] = test system: SF-539
[56] = test system: MDA-N
[57] = test system: K562
[58] = test system: T47D
[59] = test system: HCC 2998

NC(CSC(=O)c1ccccc1)C(=O)O (stereo not given)
GI50 [1]: > 100 µM (inactive)
GI50 [2]: > 100 µM (inactive)
GI50 [3]: > 100 µM (inactive)
GI50 [4]: > 100 µM (inactive)
GI50 [5]: > 100 µM (inactive)
GI50 [6]: > 100 µM (inactive)
GI50 [7]: > 100 µM (inactive)
GI50 [8]: > 100 µM (inactive)
GI50 [9]: > 100 µM (inactive)
GI50 [10]: > 100 µM (inactive)
GI50 [11]: > 100 µM (inactive)
GI50 [12]: > 100 µM (inactive)
GI50 [13]: > 100 µM (inactive)
GI50 [14]: > 100 µM (inactive)
GI50 [15]: > 100 µM (inactive)
GI50 [16]: > 100 µM (inactive)
GI50 [17]: > 100 µM (inactive)
GI50 [18]: > 100 µM (inactive)
GI50 [19]: > 100 µM (inactive)
GI50 [20]: > 100 µM (inactive)
GI50 [21]: > 100 µM (inactive)
GI50 [22]: > 100 µM (inactive)
GI50 [23]: > 100 µM (inactive)
GI50 [24]: > 100 µM
GI50 [25]: > 100 µM (inactive)
GI50 [26]: > 100 µM (inactive)
GI50 [27]: > 100 µM (inactive)
GI50 [28]: > 100 µM (inactive)
GI50 [29]: > 100 µM (inactive)
GI50 [30]: > 100 µM (inactive)
GI50 [31]: > 100 µM (inactive)
GI50 [32]: > 100 µM (inactive)
GI50 [33]: > 100 µM (inactive)
GI50 [34]: > 100 µM (inactive)
GI50 [35]: > 100 µM (inactive)
GI50 [36]: > 100 µM (inactive)
GI50 [37]: > 100 µM (inactive)
GI50 [38]: > 100 µM (inactive)
GI50 [39]: > 100 µM (inactive)
GI50 [40]: > 100 µM (inactive)
GI50 [41]: > 100 µM (inactive)
GI50 [42]: > 100 µM (inactive)
GI50 [43]: > 100 µM (inactive)
GI50 [44]: > 100 µM (inactive)
GI50 [45]: > 100 µM (inactive)
GI50 [46]: > 100 µM (inactive)
GI50 [47]: > 100 µM (inactive)
GI50 [48]: > 100 µM (inactive)
GI50 [49]: > 100 µM (inactive)
GI50 [50]: > 100 µM (inactive)
GI50 [51]: > 100 µM (inactive)
GI50 [52]: > 100 µM (inactive)
GI50 [53]: > 100 µM (inactive)
GI50 [54]: > 100 µM (inactive)
GI50 [55]: > 100 µM (inactive)
GI50 [56]: > 100 µM (inactive)

CN1CCN(C(=S)N(C(=O)c2ccc(Cl)cc2)C2CCCCC2)CC1
GI50 [1]: > 100 µM (inactive)
GI50 [57]: 51.3 µM (inactive)
GI50 [2]: > 100 µM (inactive)
GI50 [3]: > 100 µM (inactive)
GI50 [4]: > 100 µM (inactive)
GI50 [5]: > 100 µM (inactive)
GI50 [6]: > 100 µM (inactive)
GI50 [7]: > 100 µM (inactive)
GI50 [9]: > 100 µM (inactive)
GI50 [10]: > 100 µM (inactive)
GI50 [11]: > 100 µM (inactive)
GI50 [12]: > 100 µM (inactive)
GI50 [13]: > 100 µM (inactive)
GI50 [14]: > 100 µM (inactive)
GI50 [15]: > 100 µM (inactive)
GI50 [16]: > 100 µM (inactive)
GI50 [17]: > 100 µM (inactive)
GI50 [18]: > 100 µM (inactive)
GI50 [19]: > 100 µM (inactive)
GI50 [20]: 20 µM (inactive)
GI50 [21]: 63.1 µM (inactive)
GI50 [22]: > 100 µM (inactive)
GI50 [24]: > 100 µM
GI50 [25]: 58.9 µM (inactive)
GI50 [26]: > 100 µM (inactive)
GI50 [27]: 61.7 µM (inactive)
GI50 [28]: > 100 µM (inactive)
GI50 [29]: > 100 µM (inactive)
GI50 [30]: > 100 µM (inactive)
GI50 [31]: > 100 µM (inactive)
GI50 [32]: > 100 µM (inactive)
GI50 [35]: > 100 µM (inactive)
GI50 [37]: > 100 µM (inactive)
GI50 [38]: > 100 µM (inactive)
GI50 [39]: > 100 µM (inactive)
GI50 [58]: > 100 µM (inactive)
GI50 [41]: > 100 µM (inactive)
GI50 [42]: > 100 µM (inactive)
GI50 [43]: > 100 µM (inactive)
GI50 [45]: > 100 µM (inactive)
GI50 [46]: > 100 µM (inactive)
GI50 [47]: 72.4 µM (inactive)
GI50 [48]: > 100 µM (inactive)
GI50 [49]: > 100 µM (inactive)
GI50 [50]: 27.4 µM (inactive)
GI50 [51]: > 100 µM (inactive)
GI50 [53]: > 100 µM (inactive)
GI50 [59]: > 100 µM (inactive)
GI50 [54]: > 100 µM (inactive)
GI50 [56]: > 100 µM (inactive)

Nc1ccc2c(c1)Cc1ccccc1-2
GI50 [1]: 89.9 µM (inactive)
GI50 [57]: 84.1 µM (inactive)
GI50 [2]: 19.5 µM (inactive)
GI50 [3]: 69.8 µM (inactive)
GI50 [4]: > 100 µM (inactive)
GI50 [5]: 66.2 µM (inactive)
GI50 [6]: > 100 µM (inactive)
GI50 [7]: > 100 µM (inactive)
GI50 [8]: > 100 µM (inactive)
GI50 [9]: > 100 µM (inactive)
GI50 [12]: > 100 µM (inactive)
GI50 [13]: 45.4 µM (inactive)
GI50 [14]: > 100 µM (inactive)
GI50 [15]: > 100 µM (inactive)
GI50 [16]: > 100 µM (inactive)
GI50 [17]: > 100 µM (inactive)
GI50 [18]: 80.7 µM (inactive)
GI50 [19]: > 100 µM (inactive)
GI50 [20]: 31.6 µM (inactive)
GI50 [21]: 34.7 µM (inactive)
GI50 [22]: 99.8 µM (inactive)
GI50 [23]: 60 µM (inactive)
GI50 [24]: 62.2 µM
GI50 [25]: 52.5 µM (inactive)
GI50 [26]: 41.5 µM (inactive)
GI50 [27]: 36.6 µM (inactive)
GI50 [28]: > 100 µM (inactive)
GI50 [29]: 95.1 µM (inactive)
GI50 [30]: 28.9 µM (inactive)
GI50 [31]: > 100 µM (inactive)
GI50 [32]: 59.4 µM (inactive)
GI50 [33]: 49 µM (inactive)
GI50 [34]: 64.9 µM (inactive)
GI50 [35]: > 100 µM (inactive)
GI50 [36]: 37.1 µM (inactive)
GI50 [37]: 47.6 µM (inactive)
GI50 [38]: > 100 µM (inactive)
GI50 [40]: > 100 µM (inactive)
GI50 [41]: > 100 µM (inactive)
GI50 [42]: 48.2 µM (inactive)
GI50 [43]: > 100 µM (inactive)
GI50 [44]: 81.5 µM (inactive)
GI50 [45]: > 100 µM (inactive)
GI50 [47]: 23.6 µM (inactive)
GI50 [48]: 48.1 µM (inactive)
GI50 [49]: > 100 µM (inactive)
GI50 [50]: > 100 µM (inactive)
GI50 [51]: > 100 µM (inactive)
GI50 [52]: 88.3 µM (inactive)
GI50 [53]: > 100 µM (inactive)
GI50 [59]: > 100 µM (inactive)
GI50 [54]: 65 µM (inactive)
GI50 [55]: 73.6 µM (inactive)
GI50 [56]: > 100 µM (inactive)
